Results published in publication PMC8380212, “^18F-labeled tracers targeting fibroblast activation protein” (EJNMMI Radiopharmacy and Chemistry, 2021).

Tested on: NSCLC primary tumor and metastases
Assay: Clinical PET/CT imaging of a patient with NSCLC
Type: in vivo, human
Settings: for SUVmean / SUVmax: primary tumor and metastases; for SUVmax: 323 MBq i.v.
Experimental: [^18F]AlF-FAPI-74 (16.2 GBq/µmol at time of injection) was applied intravenously (20 nmol; 323 MBq) to a patient with NSCLC. The PET/CT scans were performed 1 and 3 h post tracer administration with a Biograph mCT Flow™ PET/CT-Scanner (Siemens Medical Solutions). The parameters used were slice thickness of 5 mm, increment of 3–4 mm, soft-tissue reconstruction kernel and care dose. After CT scanning, a whole-body PET was acquired in 3D (matrix 200 × 200) in FlowMotion™ with 0.7 cm/min. The emission data were corrected for random, scatter and decay. Reconstruction was conducted with an ordered subset expectation maximization (OSEM) algorithm with 2 iterations/21 subsets and Gauss-filtered to a transaxial resolution of 5 mm at full-width half-maximum. Attenuation correction was performed using the low-dose non-enhanced CT data. The quantitative assessment of standardized uptake values (SUV) was done using a region of interest technique.

N#C[C@@H]1CCCN1C(=O)CNC(=O)c1ccnc2ccc(OCCCN3CCN(C(=O)CN4CCN(CC(=O)O)CCN(CC(=O)O)CC4)CC3)cc12 [FAPI-74]
excretion route in patient (non-target tissues and blood pool): excreted predominantly via the kidneys
SUV in normal tissues (normal tissues of the patient): almost zero
SUVmean (1 h): 3.3 ± 0.6
SUVmax (1 h): 6.5 ± 1.1
SUVmean (3 h): 2.75 ± 0.5
SUVmax (3 h): 5.6 ± 0.7
